{
  "source": "paper PMC2833264",
  "about": "(Photosynthesis research, 2009)",
  "target": "T1, C. reinhardtii nitrite reductase (Chlamydomonas reinhardtii, UniProt Q9ZR67)",
  "T1 sequence (Q9ZR67 29-589)": "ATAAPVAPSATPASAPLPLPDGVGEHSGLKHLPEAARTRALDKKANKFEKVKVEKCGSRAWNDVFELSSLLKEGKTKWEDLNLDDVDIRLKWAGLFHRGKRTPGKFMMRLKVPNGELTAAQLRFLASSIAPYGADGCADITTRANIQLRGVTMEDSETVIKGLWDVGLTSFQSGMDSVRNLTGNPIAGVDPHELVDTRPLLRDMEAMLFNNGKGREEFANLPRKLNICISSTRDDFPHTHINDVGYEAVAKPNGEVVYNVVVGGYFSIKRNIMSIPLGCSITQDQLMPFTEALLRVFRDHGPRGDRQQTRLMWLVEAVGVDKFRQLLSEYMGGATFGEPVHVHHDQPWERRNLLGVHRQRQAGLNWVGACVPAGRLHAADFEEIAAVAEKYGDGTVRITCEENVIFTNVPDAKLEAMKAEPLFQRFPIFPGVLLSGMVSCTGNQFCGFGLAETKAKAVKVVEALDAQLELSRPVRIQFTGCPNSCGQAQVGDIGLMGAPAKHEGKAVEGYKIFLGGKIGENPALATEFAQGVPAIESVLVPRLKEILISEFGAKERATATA",
  "experiment": "spectral perturbation titration",
  "type": "binding",
  "data": [
    {"compound": "O=NO", "note": "[nitrite]", "values": [
      {"measurement": "Kd", "value": 50, "unit": "µM"}
    ]}
  ]
}
